Data: PubChem BioAssay AID2060619 (Molecular Pharmacology Branch, DTP, NCI, 2025)
Where “and” joins values, the source holds several entries; their conditions need not be identical. Identical values can stand only once.

Tested on: 323965-272-R-J2-PDC complex spheroid viability
Assay: Anticancer human tumor 323965-272-R-J2-PDC patient-derived pancreatic carcinoma cell line growth inhibition [CLK]
Settings: for viability, T/C: stronger effect = lower value; active = viability on the fitted dose curve at most 10% of control; inactive = the rest
Excerpt: A high-throughput screen of multi-cell type tumor spheroids was designed to identify active combinations of […] and targeted small molecules. Complex spheroids include a stromal component modeled by human endothelial cells (HUVEC) and fibroblasts modeled by human mesenchymal stem cells (MSCs). The concentration ranges selected for each drug and investigational agent were based upon clinically achievable concentrations if the clinical Cmax of the agent was known.
Compounds. The drugs and investigational agents: cirtuvivint (SM08502; NSC835563), CC-671 (NSC850746), vemurafenib (NSC761431), tapotoclax (NSC804041), sotorasib (NSC818433), adagrasib (NSC831453), MRTX-1133 (NSC836407), BAY2416964 (NSC825713), copanlisib (NSC816437), inavolisib (NSC800729), abemaciclib (NSC768073), osimertinib (NSC779217), entinostat (NSC756642), eltanexor (KPT-8602, NSC794443), venetoclax (NSC766270), ceralasertib (NSC777638), bortezomib (NSC756655), olaparib (NSC753686), talazoparib (NSC767125), alisertib (NSC759677), peposertib (NSC802822), gemcitabine (NSC613327), 5-fluorouracil (NSC19893), SN-38 (NSC673596), oxaliplatin (NSC266046), paclitaxel (NSC125973), and doxorubicin (NSC123127), were obtained from the National Cancer Institute (NCI) Developmental Therapeutics Program Chemical Repository. The FDA-approved anticancer drug set is available from the Developmental Therapeutics Program at https://dtp.cancer.gov/organization/dscb/obtaining/available plates.htm. […] The stock solutions were prepared in dimethyl sulfoxide (DMSO, Sigma-Aldrich, St. Louis, MO, cat. D2650), except for the platinum complexes which were prepared in saline (Quality Biological, Gaithersburg, MD, cat. 114-055-101), at 800-fold the tested concentration and stored at -70 degrees C prior to their use. All drugs and investigational agents were tested over a range starting from a high concentration at or near the clinical Cmax and decreasing in half-log increments. If the clinical Cmax for an agent had not been determined, the highest concentration tested was 10 microM.
Cell Culture. All cells were maintained in an incubator at 37 degrees C and 5% CO2 with 95% humidity. The PDC lines were cultured according to standard operating procedures established by the NCI PDMR. Briefly, all PDCs were thawed and cultured in Matrigel-coated flasks prepared with a working solution of 1X Ham's F-12 nutrient mix, without supplementation (Invitrogen, Waltham, MA, cat. 11765054), 100 U/mL penicillin-streptomycin (Invitrogen, cat. 15140122), and 2.5% Matrigel (Corning Inc., Corning, NY, cat. 354248) for the first three passages. The 947758-054-R-J2-PDC line was cultured in 6B/Colon 1A media, which includes advanced DMEM/F-12 (Thermo Fisher Scientific, cat. 12634028), 10 mM HEPES (Thermo Fisher Scientific, cat. 15630080), 1X GlutaMAX supplement (Thermo Fisher Scientific, cat. 35050061), 0.1 mg/mL primocin (InvivoGen, cat. ant-pm-2), 10% defined fetal bovine serum, heat inactivated (HyClone Laboratories Inc., cat. SH30070.03HI), 1.25 mM N-Acetyl-L-cysteine (Sigma-Aldrich, cat. A9165), 10 mM nicotinamide (Sigma-Aldrich, cat. N0636), 1X B-27 supplement (Thermo Fisher Scientific, cat. 17504044), 1X N-2 supplement (Thermo Fisher Scientific, cat. 17502048), and 10 microM Y-27632 dihydrochloride (Tocris Bioscience, cat. 1254). The 876862-298-R-J1-PDC was cultured in 6E media, which includes all 6B/Colon 1A media components plus 50% L-WRN conditioned media (ATCC, cat. CRL-3276), 50 ng/mL recombinant human EGF recombinant protein (hEGF; Thermo Fisher Scientific, cat. PHG0311), 10 ng/mL recombinant human fibroblast growth factor 10 (hGFG-10; PeproTech, cat. 100-26), 1 ng/mL recombinant human fibroblast growth factor 2 (hFGF-2; PeproTech, cat. 100-18B), and 1 µM prostaglandin E2 (PGE2; Tocris, cat. 2296). The 227483-062-R1-J1-PDC line was cultured in Panc media, containing all 6E components except hFGF-2, with the addition of 500 nM SB-431542 (Selleckchem, cat. S1067) and 10 nM gastrin (Tocris, cat. 3006). […]
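Also: spheroids exposed to agents for seven days before readout.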
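For viability, T/C in this document: percent of DMSO vehicle control wells so 100% = untreated growth.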

C=CC(=O)N1CCN(c2nc(=O)n(-c3c(C)ccnc3C(C)C)c3nc(-c4c(O)cccc4F)c(F)cc23)C(C)C1 (centres undefined) + CNC(=O)c1ccc(Nc2nc(OC3CCCC3)c3c(-c4ccc5nc(C)oc5c4)c[nH]c3n2)c(OC)c1
< 31.6 nM: IC50 (curve of first compound, second compound 0.316 µM) | IC50 (curve of first compound, second compound 1 µM) | IC50 (curve of first compound, second compound 3.16 µM) | IC50 (curve of first compound, second compound 10 µM)
> 10000 nM: IC50 (curve of first compound, second compound 0.0316 µM) | IC50 (curve of first compound, second compound 0.1 µM)
inactive: viability, T/C (second compound 0.0316 µM, first compound 0.0316 µM) 61.4% | viability, T/C (second compound 0.0316 µM, first compound 0.1 µM) 66.7% | viability, T/C (second compound 0.0316 µM, first compound 0.316 µM) 66.9% | viability, T/C (second compound 0.0316 µM, first compound 1 µM) 73.9% | viability, T/C (second compound 0.0316 µM, first compound 3.16 µM) 69% | viability, T/C (second compound 0.0316 µM, first compound 10 µM) 76.4% | viability, T/C (second compound 0.1 µM, first compound 0.0316 µM) 66.6% | viability, T/C (second compound 0.1 µM, first compound 0.1 µM) 59.5% | viability, T/C (second compound 0.1 µM, first compound 0.316 µM) 59.1% | viability, T/C (second compound 0.1 µM, first compound 1 µM) 55.4% | viability, T/C (second compound 0.1 µM, first compound 3.16 µM) 59.5% | viability, T/C (second compound 0.1 µM, first compound 10 µM) 58.7% | viability, T/C (second compound 0.316 µM, first compound 0.0316 µM) 44.8% | viability, T/C (second compound 0.316 µM, first compound 0.1 µM) 41.1% | viability, T/C (second compound 0.316 µM, first compound 0.316 µM) 39.7% | viability, T/C (second compound 0.316 µM, first compound 1 µM) 47.8% | viability, T/C (second compound 0.316 µM, first compound 3.16 µM) 45.1% | viability, T/C (second compound 0.316 µM, first compound 10 µM) 44.4% | viability, T/C (second compound 1 µM, first compound 0.0316 µM) 28.3% | viability, T/C (second compound 1 µM, first compound 0.1 µM) 25.1% | viability, T/C (second compound 1 µM, first compound 0.316 µM) 24.4% | viability, T/C (second compound 1 µM, first compound 1 µM) 27.9% | viability, T/C (second compound 1 µM, first compound 3.16 µM) 28.2% | viability, T/C (second compound 1 µM, first compound 10 µM) 29% | viability, T/C (second compound 3.16 µM, first compound 0.0316 µM) 26.9% | viability, T/C (second compound 3.16 µM, first compound 0.1 µM) 25.8% | viability, T/C (second compound 3.16 µM, first compound 0.316 µM) 28.5% | viability, T/C (second compound 3.16 µM, first compound 1 µM) 23.9% | viability, T/C (second compound 3.16 µM, first compound 3.16 µM) 26.6% | viability, T/C (second compound 3.16 µM, first compound 10 µM) 30.3% | viability, T/C (second compound 10 µM, first compound 0.0316 µM) 23.2% | viability, T/C (second compound 10 µM, first compound 0.1 µM) 21.4% | viability, T/C (second compound 10 µM, first compound 0.316 µM) 26.9% | viability, T/C (second compound 10 µM, first compound 1 µM) 24.4% | viability, T/C (second compound 10 µM, first compound 3.16 µM) 27.1% | viability, T/C (second compound 10 µM, first compound 10 µM) 28.6%

O=C(c1cc(Cc2n[nH]c(=O)c3ccccc23)ccc1F)N1CCN(C(=O)C2CC2)CC1
> 10000 nM: IC50 (curve of compound)
inactive: viability, T/C (compound 0.0316 µM) 105% and 107% | viability, T/C (compound 0.1 µM) 103% and 102% | viability, T/C (compound 0.316 µM) 100% and 98.1% | viability, T/C (compound 1 µM) 103% and 90.2% | viability, T/C (compound 3.16 µM) 108% and 107% | viability, T/C (compound 10 µM) 84.3% and 81.5%
